According to patent US20100119613A1, “PROCESS TO ACTIVATE EXTRACTS DERIVED FROM LIVING ORGANISMS USING LONG WAVE UV IRRADIATION AND COMPOSITIONS COMPRISING SAID ACTIVATED EXTRACT” (Medizinische Universitat Wien, priority 2007, published 2010):

Columns and labels:
[1] = system: Heme Oxygenase 1 (HO-1); assay: HO-1 mRNA expression in dermal fibroblasts (qPCR); type: cell-based, human; settings: for Effect on OxPAPC-mediated HO-1 induction: fibroblasts incubated with the ROS scavenger prior to exposure to OxPAPC; for HO-1 mRNA expression relative to non-treated control cells: dermal fibroblasts
Protocol: Neonatal Human Epidermal Keratinocytes (KC) derived from foreskin are obtained from Clonetics (San Diego, Calif.). Keratinocytes are cultured in keratinocyte growth medium (KGM) up to the fifth passage. Human neonatal skin fibroblasts (FB) are obtained from Cascade Biologics (Portland, Oreg.) and grown in Dulbecco's modified Eagle's medium, Gibco (Gaithersburg, Md.) supplemented with 10% fetal calf serum (FCS) and penicillin/streptomycin (1000 U per ml, Gibco) to sub-confluence.
RNA is isolated using Trizol reagent (Invitrogen). Nine hundred ng of total RNA are reverse-transcribed with murine leukemia virus reverse transcriptase (MuLV, Applied Biosystems, Foster City, Calif.) and oligo(dT) primers. The following forward (F) and reverse (R) primers are used: HO-1: F, 5′-[…]-3′; R, 5′-[…]-3′; B2M; F 5′-[…]-3′R,5′-[…]-3′ qPCR is performed using LightCycler technology and the Fast Start SYBR Green I kit (both Roche Applied Science, Basel, Switzerland). In all assays, cDNA is amplified using a standardized program (10-min denaturing step; 55 cycles of 5 s at 95° C., […], and 15 s at 72° C.; melting point analysis in 0.1° C. steps). Quantification of target gene expression is performed using a mathematical model by Pfaffl (Pfaffl, Nucleic Acids Res. 29, e45 (2001)). The expression of the target molecule is normalized to the expression of β-2 microglobulin.
PAPC is oxidized by exposure of the dry lipid to air for 72 h to generate OxPAPC. PAPC dried to a thin film on a glass support is irradiated with UVA-1 with 160 J/cm^2 to generate UV-PAPC. For treatment with singlet oxygen all lipids are vortexed in PBS containing 20 μM Rose Bengal and irradiated with 10 J/cm^2 UVA-1 (FIGS. 5 A,B) or under a commercial 35 W halogen lamp at a distance of 30 cm for 30 minutes (FIG. 5 C). The extent of oxidation was monitored by ESI-MS as described previously (Watson, J. Biol. Chem. 272, 13597-13607 (1997)). The UVA-1 irradiated lipids are solubilized, emulsified or suspended in the respective growth medium before skin cells or the skin equivalent are treated.
Human neonatal skin fibroblasts (FB) are obtained from Cascade Biologics (Portland, Oreg.) and grown in Dulbecco's modified Eagle's medium, Gibco (Gaithersburg, Md.) supplemented with 10% fetal calf serum (FCS) and penicillin/streptomycin (1000 U per ml, Gibco) to sub-confluence.
Fibroblasts are treated with autoxidized PAPC, UVA-1 treated PAPC or UVA-1 untreated PAPC (100 μg/ml) as described in Example 1. Total RNA is isolated after 4 hours from treated cells and untreated control cells.
Relative expression of HO-1 mRNA in dermal fibroblasts is determined 4 h after stimulation with lipids or extracts as specified above using quantitative real-time PCR (qPCR). Normalization is standardized by comparison to the expression of the housekeeping gene beta-2-microglobulin (B2M) as described in Example 1.
Fibroblasts are treated with lipids or extract as described in Example 1 relating to treatment with oxPAPC. Total RNA is isolated 4 h after stimulation with 100 μg/ml of lipids or extract.

[2] = system: HO-1; settings: literature (Ishikawa 1997); cited from earlier work
[3] = TLC fractions of OxPAPC and synthetic phospholipids (FIG. 2)
[4] = lipid not irradiated with UVA-1 in the presence of RB (FIG. 5B)

CC1=C(/C=C/C(C)=C/C=C/C(C)=C/C=C/C=C(C)/C=C/C=C(C)/C=C/C2=C(C)CCCC2(C)C)C(C)(C)CCC1 [β-carotene]
Effect on OxPAPC-mediated HO-1 induction [1]: did not significantly reduce

vitamin E
Effect on OxPAPC-mediated HO-1 induction [1]: did not significantly reduce

1-palmitoyl-2-(epoxyisoprostane E2)-sn-glycero-3-phosphorylcholine [PEIPC]
HO-1 expression [2]: strong inducer of HO-1 expression

O=C1O[C@H]([C@@H](O)CO)C(O)=C1O [vitamin C]
Effect on OxPAPC-mediated HO-1 induction [1]: did not significantly reduce

CCCCCCCCCCCCCCCC(=O)OC[C@H](COP(=O)([O-])OCC[N+](C)(C)C)OC(=O)CCCC(=O)O [PGPC, 1-palmitoyl-2-glutaroyl-sn-glycero-3-phosphorylcholine]
HO-1 mRNA expression relative to non-treated control cells [1, 3]: failed to induce HO-1 expression

CCCCC/C=C\C/C=C\CCCCCCCC(=O)O[C@H](COC(=O)CCCCCCCCCCCCCCC)COP(=O)([O-])OCC[N+](C)(C)C [PLPC, 1-palmitoyl-2-linoleyl-sn-3-glycerophosphorylcholine]
HO-1 mRNA expression relative to non-treated control cells [1, 4]: did not induce Heme Oxygenase 1 (HO-1) mRNA expression

CCCCCCCCCCCCCCCC(=O)OC[C@H](COP(=O)(O)OCC[N+](C)(C)C)OC(=O)CCCC=O [POVPC, 1-palmitoyl-2-(5-oxovaleroyl)-sn-glycero-3-phosphorylcholine]
HO-1 mRNA expression relative to non-treated control cells [1, 3]: failed to induce HO-1 expression

CCCCCCCCCCCCCCCC(=O)OC[C@@H](O)COP(=O)([O-])OCC[N+](C)(C)C [LysoPC, 1-palmitoyl-2-lyso-sn-glycero-3-phosphorylcholine]
HO-1 mRNA expression relative to non-treated control cells [1, 3]: failed to induce HO-1 expression

CCCCCCCCCCCCCC(=O)OC[C@H](COP(=O)([O-])OCC[N+](C)(C)C)OC(=O)CCCCCCCCCCCCC [DMPC, di-myristoyl-phosphorylcholine]
HO-1 mRNA expression relative to non-treated control cells [1, 3]: failed to induce HO-1 expression

c1ccc(P(c2ccccc2)c2ccccc2)cc1 [TPP, triphenylphosphine]
Effect on capacity of OxPAPC to induce HO-1 expression ([1]; OxPAPC treated with triphenylphosphine (not shown)): only slightly reduced

CCCCCCCC/C=C\CCCCCCCC(=O)O[C@H](COC(=O)CCCCCCCCCCCCCCC)COP(=O)([O-])OCC[N+](C)(C)C [POPC, 1-palmitoyl-2-oleoyl-sn-3-glycerophosphorylcholine]
HO-1 mRNA expression relative to non-treated control cells [1, 4]: did not induce Heme Oxygenase 1 (HO-1) mRNA expression
